Marks after values point to notes of the source that are not given here.
What was measured:
Plasmodium berghei ANKA [1] = assay: Peter's 4-day suppressive test; type: in vivo; conditions: 4 days, D4; for Suppressive parasitemia (%): n = 5, ±SEM
Experimental: (§1) Twenty-five (25) albino mice (weighing 22 ± 2 g) were randomly divided into five (5) groups of five animals per group (n = 5). Parasitized blood was obtained from infected donor mouse with rising parasitaemia (≥ 20%) by cardiac puncture and the infected blood was diluted with phosphate saline glucose buffer (PSG-mouse) to attain an estimate of 5 × 10^7 red blood cells per ml. Then, 0.2 mL of inoculum containing 1 × 10^7 infected RBCs was injected into the abdominal cavity of experimental animals by intraperitoneal (ip) injection.
(§2) All drugs were administered orally for 4 days.
(§3) The chemo-suppressive effect of HA in mice infected with P. berghei was assessed using Peter’s 4-day suppressive test. The mice were infected with the malaria parasite inoculum (1 × 10^7 P.berghei ANKA) on the first day of the experiment (D0) and treated as indicated in the section above on Animal Grouping and Drug Administration after 2 h post-infection. The treatment continues for another three consecutive days. Each mouse’s parasitaemia level was assessed 96 h after infection (D4). Animals in each group had their PCV, rectal temperature, and body weight measured both before and after the experiment.
Parasitaemia was determined by counting the number of infected RBCs (minimum of four fields per slide) using a light microscope with an objective lens magnification power of 1,000x. Percentage parasitaemia and percentage chemo-suppression were calculated using the modified Peters and Robinson formula ([Nyandwaro et al., 2020]): % parasitemia=number of parasitized RBCs/total number of RBC count×100 % chemo−suppression=% parasitemia in negative control− % parasitemia in study group/% parasitemia in negative control×100

Plasmodium berghei ANKA [2] = assay: Mean survival time of P. berghei-infected mice; type: in vivo; conditions: 4 days, monitored 30 days, n = 5, ±SEM
Experimental: as §1, §2
The survival rate was monitored from the first day of the treatment to 30 days. Each mouse’s mortality was monitored and recorded in days. The mean survival time (MST) of mice in each group was determined, as shown below. MST=sum of survival time of all mice in a group in days/total number of mice in a group

[3] = system: Plasmodium berghei infected mice; assay: Body weight, rectal temperature and packed cell volume in the suppressive test; type: in vivo, Mus musculus; conditions: SEM; for Weight (g) initial / Temperature (°C) initial: before the experiment; for Weight (g) initial / Temperature (°C) initial / Weight (g) final / Temperature (°C) final: n = 5; for PCV (%) DAY 0: first day of infection; for Temperature (°C) initial / Temperature (°C) final: rectal; for Percentage change in PCV (%) DAY 0 / Percentage change in temperature (%) / Weight (g) final / PCV (%) DAY 4 / Percentage change in weight (%) / Temperature (°C) final / PCV (%) DAY 9 / Percentage change in PCV (%) DAY 9: 4 days; for Weight (g) final / Temperature (°C) final: after the experiment; for PCV (%) DAY 4: fifth day after infection; for Percentage change in weight (%): infected mice; for PCV (%) DAY 9 / Percentage change in PCV (%) DAY 9: tenth day after infection
Experimental: as §1, §2, §3
Blood samples were taken from each mouse’s tail using heparinized capillary tubes, sealed, and then put into a micro haematocrit centrifuge to calculate the packed cell volume of the blood. After being centrifuged for 5 min at 12,000 rpm, the blood samples’ PCV was calculated using the following formula: Packed Cell Volume=volume of erythrocyes in a given volume of blood/total volume of blood×100
The body weight and rectal temperature of each mouse were also determined using a sensitive digital weighing balance and rectal thermometer, respectively.

[4] = system: bone marrow cells of mice; assay: Micronucleus (MN) assay; conditions: SEM
Experimental: (§4) The negative control group (group a) was treated with 0.2 mL of the vehicle, while the positive control group (group g) was also treated with the 20 mg/kg dosage of cyclophosphamide. […] The blood samples were collected for haematological analysis, while the liver and kidney were also collected for histopathological analysis and fixed in 10% formalin.
The animals used for the subacute toxicity test were also used for the MN assay because the treatment follows the same procedure, but the positive control, cyclophosphamide (group g) for MN, is a single-dose treatment that was given intraperitoneally. The MN assay was carried out as described by Jain and Pandey ([Jain and Pandey, 2019]), four animals were sacrificed from each group by cervical dislocation, and both femurs were removed. The epiphyses were removed from the femur, and the bone marrow was flushed with fetal bovine serum (FBS) into Eppendorf tubes (1.5 mL). After a light tap to ensure appropriate cell dispersion, it was centrifuged at 2,000 rpm for 5 minutes. The pellet was suspended in another 1 mL of FBS in the Eppendorf tube, thoroughly mixed using a micropipette, and centrifuged once more at the same rate after the supernatant was discarded. Once more, the supernatant was removed, and the pellet was mixed with 0.5 mL of FBS before a few drops of the viscous mixture were dropped on a clean, oil-free slide. This drop was spread on the slide and allowed to air dry.
The slides were stained with 0.4% May-Grunewald stain for 3-4 min and were immediately transferred into another coupling jar containing May-Grunewald and distilled water (ratio 1:1) and allowed to stain for another 3-4 min. The slides were rinsed in distilled water and allowed to dry completely. Then, it was also stained in 5% Giemsa stain for 5 min, rinsed in distilled water, and allowed to dry completely. A minimum of 1,000 cells from each mouse were examined for micronuclei in polychromatic erythrocytes (MNPCE) using a light microscope at a magnification of 1,000X (oil immersion). The relative size of the erythrocytes and the difference in staining between PCEs (bluish-purple) and normochromatic erythrocytes (NCEs, pink-orange) are used to distinguish between them.

liver and kidney of mice = assay: Subacute toxicity test: liver and kidney histopathology; conditions: 20 mg/kg, positive control (group g)
Experimental: as §4
The tissues were sliced into small pieces not more than 4 mm thick and then submerged in 10% formal saline for 24 h to fix, according to the protocols of [Avwioro et al., (2010)] for histopathology investigations. The tissue processing was carried out automatically using an automatic tissue processor (Leica TP 1020) by letting the tissues pass through several reagents: 10% formal saline was used in Stations 1 and 2, and alcohol in Stations 3 through 7 was used to dehydrate the tissues. The tissues were then moved into Stations 10 to 12, which contained wax for infiltration or impregnation, after passing through Stations 8 and 9, which contained xylene for the purpose of […]. Tissues stayed in each station for 1 hour during the 12-h duration of these operations. The tissues were then covered with molten paraffin wax, allowed to cool on ice, and then sectioned at a 4-micrometer interval. These parts were picked up using clean, labeled slides and floated in a water bath set at 55°C. […]

[5] = Weight of experimental animals for toxicity test; conditions: SEM
Experimental: as §4

[6] = 20 mg/kg/bwt single dose intraperitoneally

Structure (SMILES): CCCCCCCCCCCCCCCC(=O)O [HA, n-Hexadecanoic acid]
- Percentage chemosuppression (%) (Plasmodium berghei ANKA [1]; 10 mg/kg oral): 71.58%
- Suppressive parasitemia (%) (Plasmodium berghei ANKA [1]; 10 mg/kg oral): 1.89 ± 0.30^ab %
- Percentage chemosuppression (%) (Plasmodium berghei ANKA [1]; 50 mg/kg oral): 83.80%
- Suppressive parasitemia (%) (Plasmodium berghei ANKA [1]; 50 mg/kg oral): 1.08 ± 0.29 ^a %
- Percentage chemosuppression (%) (Plasmodium berghei ANKA [1]; 100 mg/kg oral): 89.74%
- Suppressive parasitemia (%) (Plasmodium berghei ANKA [1]; 100 mg/kg oral): 0.68 ± 0.18 ^a %
- MST (days) (Plasmodium berghei ANKA [2]; 10 mg/kg oral): 15.60 ± 2.62 ^d days
- MST (days) (Plasmodium berghei ANKA [2]; 50 mg/kg oral): 9.20 ± 1.16 ^d days
- MST (days) (Plasmodium berghei ANKA [2]; 100 mg/kg oral): 11.40 ± 1.6 ^d days
- Weight (g) initial ([3]; 10 mg/kg group): 22.88 ± 0.47 g
- PCV (%) DAY 0 ([3]; 10 mg/kg group): 42.63 ± 1.25%
- Temperature (°C) initial ([3]; 10 mg/kg group): 32.26 ± 0.33 °C
- Percentage change in PCV (%) DAY 0 ([3]; 10 mg/kg oral): 6.00 ± 13.99%
- Percentage change in temperature (%) ([3]; 10 mg/kg oral): −6.08 ± 1.60%
- Weight (g) final ([3]; 10 mg/kg oral): 19.24 ± 0.81 g
- PCV (%) DAY 4 ([3]; 10 mg/kg oral): 43.75 ± 5.11%
- Percentage change in weight (%) ([3]; 10 mg/kg oral): −15.99 ± 2.63%
- Temperature (°C) final ([3]; 10 mg/kg oral): 30.28 ± 0.24 °C
- PCV (%) DAY 9 ([3]; 10 mg/kg oral): 23.12 ± 0.46%
- Percentage change in PCV (%) DAY 9 ([3]; 10 mg/kg oral): −45.54 ± 3.26%
- Weight (g) initial ([3]; 50 mg/kg group): 24.48 ± 0.71 g
- PCV (%) DAY 0 ([3]; 50 mg/kg group): 46.60 ± 2.88%
- Temperature (°C) initial ([3]; 50 mg/kg group): 32.20 ± 0.32 °C
- Percentage change in PCV (%) DAY 0 ([3]; 50 mg/kg oral): 3.54 ± 3.53%
- Percentage change in temperature (%) ([3]; 50 mg/kg oral): −6.56 ± 1.17%
- Weight (g) final ([3]; 50 mg/kg oral): 22.94 ± 1.24 g
- PCV (%) DAY 4 ([3]; 50 mg/kg oral): 48.20 ± 3.14%
- Percentage change in weight (%) ([3]; 50 mg/kg oral): −6.46 ± 2.75%
- Temperature (°C) final ([3]; 50 mg/kg oral): 30.08 ± 0.37 °C
- PCV (%) DAY 9 ([3]; 50 mg/kg oral): 22.93 ± 4.57%
- Percentage change in PCV (%) DAY 9 ([3]; 50 mg/kg oral): −51.35 ± 8.51%
- Weight (g) initial ([3]; 100 mg/kg group): 22.19 ± 0.40 g
- PCV (%) DAY 0 ([3]; 100 mg/kg group): 40.94 ± 2.51%
- Temperature (°C) initial ([3]; 100 mg/kg group): 32.20 ± 0.06 °C
- Percentage change in PCV (%) DAY 0 ([3]; 100 mg/kg oral): 5.03 ± 2.78%
- Percentage change in temperature (%) ([3]; 100 mg/kg oral): −6.39 ± 1.59%
- Weight (g) final ([3]; 100 mg/kg oral): 19.99 ± 0.31 g
- PCV (%) DAY 4 ([3]; 100 mg/kg oral): 43.00 ± 5.03%
- Percentage change in weight (%) ([3]; 100 mg/kg oral): −9.77 ± 2.56%
- Temperature (°C) final ([3]; 100 mg/kg oral): 30.14 ± 0.46 °C
- PCV (%) DAY 9 ([3]; 100 mg/kg oral): 25.42 ± 12.08%
- Percentage change in PCV (%) DAY 9 ([3]; 100 mg/kg oral): −39.10 ± 10.67%
- MnNCE (micronucleated normochromatic erythrocytes) ([4]; 2 mg/kg oral, 14 days): 3.42 ± 0.30
- MnPCE (micronucleated polychromatic erythrocytes) ([4]; 2 mg/kg oral, 14 days): 6.25 ± 0.88
- MnNCE (micronucleated normochromatic erythrocytes) ([4]; 5 mg/kg oral, 14 days): 3.17 ± 0.74
- MnPCE (micronucleated polychromatic erythrocytes) ([4]; 5 mg/kg oral, 14 days): 9.08 ± 1.30
- MnNCE (micronucleated normochromatic erythrocytes) ([4]; 10 mg/kg oral, 14 days): 6.67 ± 2.25
- MnPCE (micronucleated polychromatic erythrocytes) ([4]; 10 mg/kg oral, 14 days): 11.58 ± 2.00
- MnNCE (micronucleated normochromatic erythrocytes) ([4]; 50 mg/kg oral, 14 days): 7.19 ± 0.98
- MnPCE (micronucleated polychromatic erythrocytes) ([4]; 50 mg/kg oral, 14 days): 18.86 ± 1.74
- MnNCE (micronucleated normochromatic erythrocytes) ([4]; 100 mg/kg oral, 14 days): 8.00 ± 0.84
- MnPCE (micronucleated polychromatic erythrocytes) ([4]; 100 mg/kg oral, 14 days): 23.11 ± 0.58

Structure (SMILES): O=P1(N(CCCl)CCCl)NCCCO1 (stereo not shown) [CYP, Cyclophosphamide]
- Kidney histological presentation (liver and kidney of mice): normal architecture
- Liver histological presentation (liver and kidney of mice): normal architecture
- MnNCE (micronucleated normochromatic erythrocytes) [4, 6]: 100.9 ± 11.99
- MnPCE (micronucleated polychromatic erythrocytes) [4, 6]: 225.9 ± 8.84
- Others (other abnormalities) [4, 6]: 119.2 ± 19.59
- PCE: NCE (polychromatic erythrocytes/normochromatic erythrocytes ratio) [4, 6]: 0.51 ± 0.04
- Weight (g) final ([5]; 20 mg/kg (positive control), n = 5): 24.43 ± 0.25 g
- Percentage change in weight (%) ([5]; 20 mg/kg (positive control), toxicity test): −0.50 ± 0.34%
- Weight (g) initial ([5]; 20 mg/kg group (positive control), toxicity test, n = 5): 24.53 ± 0.27 g

Reference: PMC11371785 (Frontiers in Pharmacology, 2024)
